Data on four compounds can be found in ChEMBL document CHEMBL1212750, “Continuous clindamycin infusion, an innovative approach to treating bone and joint infections” (Antimicrob Agents Chemother, 2010).

Activity calls are given as the source filed them.

Data set [1] has as its system Serum. In words: Drug level in bone/joint infection patient serum assessed as median concentration at 2400 mg, iv after 3 to 14 days. Particulars: human, in vivo. The format is ADME, organism-based.
The test system of data set [2] is Staphylococcus aureus. Briefly: Antimicrobial activity against Staphylococcus aureus infection in human assessed as curing from bone/joint infection at 600 mg, iv followed by 30 to 40 mg/kg of body weight, iv followed by oral regimen upto 30 months. The format is functional, organism-based.
The test system of data set [3] is Serum. Briefly: Drug level in bone/joint infection patient serum assessed as median concentration at 2400 mg, iv after 8 to 28 days. The format is ADME, organism-based. Particulars: human, in vivo.
Data set [4] is described as follows: Cmax po dosed in human co-treated with rifampin. It counts as ADME, organism-based. Further details: route oral. Particulars: in vivo.
Data set [5] relates to Staphylococcus aureus. Briefly: Antimicrobial activity against Staphylococcus aureus SJ11617. It counts as functional.

As for `CCC[C@@H]1C[C@@H](C(=O)N[C@@H]([C@H]2O[C@H](SC)[C@H](O)[C@@H](O)[C@H]2O)[C@H](C)Cl)N(C)C1` [CLINDAMYCIN], the Drug uptake with Serum [1] turned out to be 5 mg/L; in the data set with Serum [3], 6.2 mg/L. Further, the outcome in the data set with Staphylococcus aureus [2] was Active. The Cmax in data set [4] is less than 2500 ng/mL.

Compound `C[C@@H]1O[C@@H]1P(=O)(O)O` [FOSFOMYCIN] yielded an MIC against Staphylococcus aureus [5] greater than 512 µg/mL.

For `CO[C@H]1/C=C/O[C@@]2(C)Oc3c(C)c(O)c4c(O)c(c(/C=N/N5CCN(C)CC5)c(O)c4c3C2=O)NC(=O)/C(C)=C\C=C\[C@H](C)[C@H](O)[C@@H](C)[C@@H](O)[C@@H](C)[C@H](OC(C)=O)[C@@H]1C` [RIFAMPIN], the MIC in the data set on Staphylococcus aureus [5] is greater than 128 µg/mL.

Take `CC(=O)O[C@H]1C[C@@]2(C)[C@@H](C[C@@H](O)[C@H]3[C@@]4(C)CC[C@@H](O)[C@@H](C)[C@@H]4CC[C@@]32C)/C1=C(\CCC=C(C)C)C(=O)O` [FUSIDIC ACID]: the MIC in the data set on Staphylococcus aureus [5] was greater than 256 µg/mL.

One may read the Cmax as the highest concentration seen after dosing. What is called MIC is the smallest concentration in the dilution series that meets the test's criterion for growth inhibition.
